19 compounds from patent US5534533A, “Carboxylate derivatives exhibiting phospholipase A2 inhibitory activity” (Shionogi & Co., Ltd., priority 1993, dated 1996) can be followed below.

In general, IC50 refers to the concentration that gives 50% inhibition.

One assay concerns the target T1, Human secretory PLA2 (Homo sapiens, UniProt P14555).
T1 sequence (P14555 21-144): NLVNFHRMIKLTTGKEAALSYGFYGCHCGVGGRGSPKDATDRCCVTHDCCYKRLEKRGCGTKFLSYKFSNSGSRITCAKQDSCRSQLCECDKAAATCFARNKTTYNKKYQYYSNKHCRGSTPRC
In words: Secretory PLA2 inhibitory activity (diheptanoyl thio PC substrate, absorbance at 405 nm). The format is biochemical. The conditions noted are these: diheptanoyl thio PC 1 mM, Triton X100 0.3 mM, pH 7.3, CaCl2 10 mM, 30 minutes, read-out: s-PLA2 Inhibition IC50. As for the experimental part:
Secretory PLA2 activity was assayed according to the method described in Penynolds L. J., Hughes L. L., Dennis E. A. et al. Anal. Biochem. 201,190-197 (1992).
Diheptanoyl thiophosphatidylcholine which was prepared according to the procedure described in the literature was used as a substrate. Human secretory PLA2 was used as an enzyme. The diheptanoyl thio PC (1 mM) was reacted with the human secretory PLA2 in the presence of Triton X100 (0.3 mM) and 5,5'-dithiobis-(2-nitrobenzoic acid) (125 μM) in Tris buffer (25 mM, pH 7.3), CaCl2 (10 mM), KCI (100 mM), bovine serum albumin (1.0 mg/ml), and then the change in absorbance at 405 nm at the time of 30 minutes after the reaction was assayed.
Inhibitory activity (%) was estimated by the formula: [(the change in absorbance with the inhibitor and PLA2 ·the change in absorbance with the inhibitor and without PLA2)/(the change in absorbance without the inhibitor and with PLA2 ·the change in absorbance without the inhibitor and PLA2)]×100.
IC50 value (μM) was calculated from graph showing inhibitory values on the vertical axis and log of concentrations of the inhibitor on the horizontal axis.

Assay [1] deals with T2, intracellular PLA2 (cytosolic PLA2, cPLA2) (Homo sapiens, UniProt P47712).
T2 sequence (P47712 1-749): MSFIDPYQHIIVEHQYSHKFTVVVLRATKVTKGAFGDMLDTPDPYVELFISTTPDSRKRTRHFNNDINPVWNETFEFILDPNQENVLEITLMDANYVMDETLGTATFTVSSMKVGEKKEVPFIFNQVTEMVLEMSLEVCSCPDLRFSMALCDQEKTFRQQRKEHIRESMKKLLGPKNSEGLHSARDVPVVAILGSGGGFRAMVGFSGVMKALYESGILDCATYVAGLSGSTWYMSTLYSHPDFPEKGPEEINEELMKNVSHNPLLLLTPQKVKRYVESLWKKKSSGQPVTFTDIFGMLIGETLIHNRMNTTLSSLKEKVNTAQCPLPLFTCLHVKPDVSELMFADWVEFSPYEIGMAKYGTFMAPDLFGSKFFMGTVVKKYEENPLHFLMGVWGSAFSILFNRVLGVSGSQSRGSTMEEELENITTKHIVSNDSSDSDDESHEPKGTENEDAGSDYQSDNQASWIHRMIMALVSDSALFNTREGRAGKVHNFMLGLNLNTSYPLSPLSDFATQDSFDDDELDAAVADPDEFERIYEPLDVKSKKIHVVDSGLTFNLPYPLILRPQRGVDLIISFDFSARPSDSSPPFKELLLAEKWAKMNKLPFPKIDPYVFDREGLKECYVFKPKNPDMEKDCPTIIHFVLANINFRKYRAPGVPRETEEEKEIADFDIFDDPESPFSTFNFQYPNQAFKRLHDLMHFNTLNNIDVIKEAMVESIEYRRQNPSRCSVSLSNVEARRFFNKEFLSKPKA
Put plainly: Intracellular PLA2 (cPLA2) inhibitory activity (14C-arachidonyl phosphatidylcholine substrate). The conditions noted are these: 2 μM radiolabelled phosphatidylcholine, 1 μM dioleoylglycerol, 1 mM CaCl2, pH 7.4; read-out: c-PLA2 Inhibition IC50. Type of assay: biochemical. As for the experimental part:
cPLA2 activity was assayed according to the method described in R. M. Kramer, E. F. Roberts, J. Manetta and J. E. Putnam, J. Biol. Chem., 268 (8), 5268-5272 (1991). Briefly, intracellular PLA2 activity was assayed using supersonic treated […] which contain 1-palmitoyl-2-[^14 C]arachidonyl-sn-glycero-3-phosphocholine and sn-1, 2-dioleoylglycerol at a molar ratio of 2:1. This test mixture contained 1 mM CaCl2, 2 mM dithiothreitol, 150 mM NaCl, 50 mM Hepes, pH 7.4 and 0.1 mg/ml BSA. A substrate is a 2 μM radioisotope labelled phosphatidylcholine ribosome containing 1 μM dioleoylglycerol. IC50 value is calculating in the same manner as in calculating it for secretory PLA2 inhibitory activity.

Consider `COc1c(C)c(OC(=O)c2c(C)c(C)c(OCCCOc3ccc(Cl)cc3Cl)c(C)c2OC)c(C)c(C)c1C(=O)O` [Example 24, 4-{4-[3-(2,4-Dichlorophenoxy)propoxy]-2-methoxy-3,5,6-trimethylbenzoyloxy}-2-methoxy-3,5,6-trimethylbenzoic Acid], for which the IC50 at Human secretory PLA2 stood at 12 µM; in assay [1], 2.8 µM.

Regarding `COc1c(C)c(OC(=O)c2c(C)c(C)c(OCCCN(S(C)(=O)=O)S(C)(=O)=O)c(C)c2OC)c(C)c(C)c1C(=O)O` [Example 60, 4-[4-(3-bis-Methylsulfonylaminopropoxy)-2-methoxy-3,5,6-trimethylbenzoyloxy]-2-methoxy-3,5,6-trimethylbenzoic Acid], the IC50 at Human secretory PLA2 was 28 µM; in assay [1], greater than 50 µM.

As to `COc1c(C)c(OC(=O)c2c(C)c(C)c(OCCCN3C(=O)c4ccccc4S3(=O)=O)c(C)c2OC)c(C)c(C)c1C(=O)O` [Example 65, 4-{4-[3-(1, 1 -Dihydroxy-3-oxo-3H-benzo[d]-isothiazole-2-yl)propoxy]-2-methoxy-3,5,6-trimethylbenzoyloxy}-2-methoxy-3,5,6-trimethylbenzoic Acid], the 50% inhibitory concentration (IC50) on Human secretory PLA2 amounted to 6.7 µM; in assay [1] it was 21 µM.

On to `COc1c(C)c(OC(=O)c2c(C)c(C)c(OCCCOc3cccc(F)c3)c(C)c2OC)c(C)c(C)c1C(=O)O` [Example 34, 4-{4-[3-(3-Fluorophenoxy)propoxy]-2-methoxy-3,5,6-trimethylbenzoyloxy}-2-methoxy-3,5,6-trimethylbenzoic Acid], for which the half-inhibitory concentration (IC50) on Human secretory PLA2 is 50 µM; in assay [1], 9.7 µM.

Take `COc1c(C)c(OC(=O)c2c(C)c(C)c(OCCCN3CCN(C(c4ccccc4)c4ccccc4)CC3)c(C)c2OC)c(C)c(C)c1C(=O)O` [Example 67, 4-{4-[3-(Di-Phenylmethylpiperazin-1-yl)propoxy]-2-methoxy-3,5,6-trimethylbenzoyloxy}-2-methoxy-3,5,6-trimethylbenzoic Acid]: the 50% inhibitory concentration (IC50) on Human secretory PLA2 turned out to be 17 µM; in assay [1] it was 5.1 µM.

With `COc1c(C(C)(C)C)cc(SCCCCCCOc2c(C)c(C)c(C(=O)Oc3c(C)c(C)c(C(=O)O)c(OC)c3C)c(OC)c2C)cc1C(C)(C)C` [Example 12, 4-[4-[6-(3,5-Di-tert-butyl-4-methoxyphenylthio)hexyloxy]-2-methoxy-3,5,6-trimethylphenylcarboxy]-2-methoxy-3,5,6-trimethylbenzoic acid], the 50% inhibitory concentration (IC50) on Human secretory PLA2 was greater than 50 µM; in assay [1], 2 µM.

As to `COc1c(C)c(OC(=O)c2c(C)c(C)c(OCCCOc3ccc(C(C)=O)cc3)c(C)c2OC)c(C)c(C)c1C(=O)O` [Example 31, 4-{4-[3-(4-Acetylphenoxy)propoxy]-2-methoxy-3,5,6-trimethylbenzoyloxy}-2-methoxy-3,5,6-trimethylbenzoic Acid], the half-inhibitory concentration (IC50) on Human secretory PLA2 was 7 µM; in assay [1] it was 24 µM.

As to `COc1c(C)c(OC(=O)c2c(C)c(C)c(OCCCOc3ccc(C(N)=O)cc3)c(C)c2OC)c(C)c(C)c1C(N)=O` [Example 45, 4-{4-[3-(4-Carbamoylphenoxy)propoxy]-2-methoxy-3,5,6-trimethylbenzoyloxy}-2-methoxy-3,5,6-trimethylbenzamide], the IC50 was 0.29 µM on Human secretory PLA2 and greater than 50 µM in assay [1].

Consider `COc1c(C)c(OC(=O)c2c(C)c(C)c(OCCCOc3ccc4c(c3)OCO4)c(C)c2OC)c(C)c(C)c1C(=O)O` [Example 28, 4-{4-[3-(Benzo[1, 3]dioxol-5-yloxy)propoxy]-2-methoxy-3,5,6-trimethylbenzoyloxy}-2-methoxy-3,5,6-trimethylbenzoic Acid], for which the 50% inhibitory concentration (IC50) at Human secretory PLA2 was found to be 6.9 µM; in assay [1], 10 µM.

Take `COc1c(C)c(OC(=O)c2c(C)c(C)c(OCCCS(=O)(=O)c3ccc(F)cc3)c(C)c2OC)c(C)c(C)c1C(=O)O` [Example 36, 4-{4-[3-(4-Fluorobenzenesulfonyl)propoxy]-2-methoxy-3,5,6-trimethylbenzoyloxy}-2-methoxy-3,5,6-trimethylbenzoic Acid]: the IC50 is 50 µM at Human secretory PLA2 and greater than 50 µM in assay [1].

As for `COc1c(C(C)(C)C)cc(SCCCOc2c(C)c(C)c(C(=O)O)c(OC)c2C)cc1C(C)(C)C` [Example 16, 4-[3-(3,5-Di-tert-butyl-4-methoxyphenylthio)propyloxy]-2-methoxy-3,5,6-trimethylbenzoic acid], the results for the IC50 (on Human secretory PLA2; in assay [1]) were greater than 50 µM and 2.6 µM, respectively.

On to `COc1c(C)c(OC(=O)c2c(C)c(C)c(OCCCOc3ccc(C(N)=O)cc3)c(C)c2OC)c(C)c(C)c1C(=O)O` [Example 42, 4-{4-[3-(4-Carbamoylphenoxy)propoxy]-2-methoxy-3,5,6-trimethylbenzoyloxy}-2-methoxy-3,5,6-trimethylbenzoic Acid], for which the concentration for half-maximal inhibition (IC50) at Human secretory PLA2 amounted to 5 µM; in assay [1], 31 µM.

Consider `COc1c(C)c(OC(=O)c2c(C)c(C)c(OCCCN(C(=O)c3ccccc3)C(=O)c3ccccc3)c(C)c2OC)c(C)c(C)c1C(=O)O` [Example 62, 4-[4-(3-Dibenzoylaminopropoxy)-2-methoxy-3,5,6-trimethylbenzoyloxy}-2-methoxy-3,5,6-trimethylbenzoic Acid], for which the half-maximal inhibitory concentration (IC50) on Human secretory PLA2 amounted to 3.8 µM; in assay [1], 9.5 µM.

Turning to `COc1c(C)c(OC(=O)c2c(C)c(C)c(OCCCOc3ccc(F)cc3F)c(C)c2OC)c(C)c(C)c1C(=O)O` [Example 14, 4-[4-[3-(2,4-difluorophenoxy)propyloxy]-2-methoxy-3,5,6-trimethylphenylcarboxy]-2-methoxy-3,5,6-trimethylbenzoic acid], the IC50 was found to be 14 µM at Human secretory PLA2 and 9.4 µM in assay [1].

For the compound `COc1c(C)c(OC(=O)c2c(C)c(C)c(OCCCNC(=O)c3ccccc3)c(C)c2OC)c(C)c(C)c1C(=O)O` [Example 61, 4-[4-(3-Benzoylaminopropoxy)-2-methoxy-3,5,6-trimethylbenzoyloxy}-2-methoxy-3,5,6-trimethylbenzoic Acid], the values for the IC50 (at Human secretory PLA2; in assay [1]) were 33 µM and greater than 50 µM, respectively.

For `COc1c(C)c(OC(=O)c2c(C)c(C)c(OCCCOc3c(F)cccc3F)c(C)c2OC)c(C)c(C)c1C(=O)O` [Example 38, 4-{4-[3-(2,6-Difluorophenoxy)propoxy]-2-methoxy-3,5,6-trimethylbenzoyloxy}-2-methoxy-3,5,6-trimethylbenzoic Acid], the IC50 at Human secretory PLA2 amounted to 6.7 µM; in assay [1], 7.1 µM.

As for `COc1c(C(C)(C)C)cc(SCCCOc2c(C)c(C)c(C(=O)Oc3c(C)c(C)c(C(=O)O)c(OC)c3C)c(OC)c2C)cc1C(C)(C)C` [Example 7, 4-[4-[3-(3,5-Di-tert-butyl-4-methoxyphenylthio)propyloxy]-2-methoxy-3,5,6-trimethylphenylcarboxy]-2-methoxy-3,5,6-trimethylbenzoic acid], the results for the IC50 (on Human secretory PLA2; in assay [1]) were greater than 50 µM and 0.54 µM, respectively.

Take `COc1c(C(C)(C)C)cc(SCCCCCCOc2c(C)c(C)c(C(=O)O)c(OC)c2C)cc1C(C)(C)C` [Example 13, 4-[6-(3,5-Di-tert-butyl-4-methoxyphenylthio)hexyloxy]-2-methoxy-3,5,6-trimethylbenzoic acid]: the IC50 at Human secretory PLA2 is greater than 50 µM; in assay [1] it was 1.9 µM.

For the compound `COc1cc(OCCCOc2c(C)c(C)c(C(=O)Oc3c(C)c(C)c(C(=O)O)c(OC)c3C)c(OC)c2C)c(C(c2ccccc2)c2ccccc2)cc1OC` [Example 21, 4-[4-[3-(2-Benzhydryl-4,5-dimethoxyphenoxy)propyloxy]-2-methoxy-3,5,6-trimethylphenylcarboxy]-2-methoxy-3,5,6-trimethylbenzoic acid], the 50% inhibitory concentration (IC50) on Human secretory PLA2 worked out at 15 µM; in assay [1], 1.4 µM.
